Entries after “also recorded” stand apart in the source; their conditions may differ.
Legend:
Type in all cases: cell-based, human
PBMC from AITP patients = assay: T cell proliferation assay, PBMC from AITP patients stimulated with GPIIIa peptides; parameters: PBMC proliferation to control recall antigen or mitogen: dose or concentration left out as unconfirmed; conditions: for PBMC proliferation in serial samples: patient AITP22, three occasions over 56 weeks (presentation, 44 weeks, 56 weeks); for AITP Patients with PBMC Response to Peptide, No High Affinity DR Expressed: patients not expressing an HLA-DR type predicted to bind the peptide with high affinity; for AITP Patients with PBMC Response to Peptide, High Affinity DR Expressed: patients expressing an HLA-DR type predicted to bind the peptide with high affinity
From the text: (§1) The human platelet membrane GPIIIa amino acid sequence (Genebank Accession no: M35999) was synthesized (Pepceuticals, Nottingham, UK) as a complete panel of 86 15-mer peptides, overlapping by 5-10 amino acids (Table 3). Peptide purity was monitored by amino acid analysis and mass spectrometry as reported previously by Barker R N et al in Blood 1997; 90:2701-2715, Scott L et al in Blood 2000; 96:4011-4019 and Cairns L S et al in J Am Soc Nephrol 2003; 14:2801-2812. The peptides were used for stimulation of T cells at the previously determined optimum concentration of […] in culture.
(§2) The antigen mycobacterial purified protein derivative (PPD) (Statens Serumintitut, Denmark) was added to cultures at […] to stimulate positive control recall T cell responses. Concanavalin A (Con A) (Sigma, Poole, Dorset, UK) was used at […] as a positive control T cell mitogen.
Mononuclear cells were recovered from anti-coagulated samples of peripheral blood from AITP patients and control donors by density gradient centrifugation (Lymphoprep; Nycomed, Denmark). Cell viability determined by trypan blue exclusion was greater than 90% in all samples.
Assays of T cell proliferation were carried out, as described by Scott L et al in Blood 2000; 96:4011-4019, Cairns L S et al in J Am Soc Nephrol 2003; 14:2801-2812 and Sukati H et al in Transfusion 2005; 45:1165-1177, under culture conditions designed to favor responses by previously activated T cells, rather than primary responses. Briefly, PBMC were cultured at 1.25×10^6 cells per mL in Alpha Modification of Eagle's Medium (Sigma, Poole, Dorset, UK) supplemented with 5% autologous serum. Synthetic GPIIIa peptides or control stimuli were added to cultures, which were incubated at 37° C. in a humidified atmosphere of 95% air and 5% CO2. T cell proliferation was estimated from the incorporation of 3H-thymidine in triplicate […] samples withdrawn from the cultures 5 days after stimulation, when recall responses peak. Results are presented either as the mean counts per minute (CPM)±SD of the triplicate samples, or as a stimulation index (SI) expressing the ratio of mean CPM in stimulated versus unstimulated control cultures. An SI>3 is interpreted as a positive response.

[1] = test system: PBMC from healthy control donors; assay: T cell proliferation assay, PBMC from healthy control donors
From the text: as §1, §2
Mononuclear cells were recovered from anti-coagulated samples of peripheral blood from AITP patients and control donors by density gradient centrifugation (Lymphoprep; Nycomed, Denmark). Cell viability determined by trypan blue exclusion was greater than 90% in all samples. […]

[2] = test system: HLA-class II molecules (HLA-DR, -DQ, -DP); assay: HLA restriction of PBMC proliferating in response to GPIIIa peptides (blocking antibodies); conditions: PBMC from four AITP patients
Protocol: To determine the HLA Class II restriction of proliferating T cells, […] anti-DR, anti-DQ or anti-DP blocking monoclonal antibodies (Pharmingen, Oxon, UK) were added to replicate cultures before stimulation.
Dominant peptides 2(aa6-20), 47 (aa361-375), 53 (aa421-435) and 82 (aa711-725) were selected for these experiments and used to stimulate PBMC from four AITP patients, in the presence or absence of anti-DP, -DQ or DR. Representative results from one patient are illustrated in FIG. 7.

| Substance | PBMC proliferation in serial samples (PBMC from AITP patients) | AITP Patients with PBMC Response to Peptide, No High Affinity DR Expressed (PBMC from AITP patients) | stimulation of PBMC from control donors [1] | blocking of peptide-induced proliferation by anti-DP, -DQ or -DR [2] | Stimulatory Peptides (SI > 3) (PBMC from AITP patients; PBMC from patient AITP26) | PBMC proliferation to control recall antigen or mitogen (PBMC from AITP patients; PBMC from all patients and control donors) | AITP Patients with PBMC Response to Peptide, High Affinity DR Expressed (PBMC from AITP patients) |
| --- | --- | --- | --- | --- | --- | --- | --- |
| ALLIWKLLITIHDRK (listed as Homo sapiens) [peptide 82, GPIIIa residues 711-725] | initially absent but appeared at later time points | AITP12 | only dominant sequence to induce proliferation by Th cells from control donors; also recorded: more than one control donor | blocked by at least one of the antibodies | – | – | – |
| CECDDFSCVRYKGEM (listed as Homo sapiens) [compound 63, GPIIIa residues 521-535] | – | – | – | – | > 63 | – | – |
| Concanavalin A [Con A, reference compound] | – | – | – | – | – | proliferated normally | – |
| DDCVVRFQYYEDSSG (listed as Homo sapiens) [peptide 77, GPIIIa residues 661-675] | seen only in the second sample | AITP2,; also recorded: AITP8 | – | – | – | – | AITP11,; also recorded: AITP16,; also recorded: AITP22 |
| DLPEELSLSFNATCL (listed as Homo sapiens) [compound 47, GPIIIa residues 361-375] | initially absent but appeared at later time points | – | – | blocked by at least one of the antibodies | – | – | None |
| FKDSLIVQVTFDCDC (listed as Homo sapiens) [compound 53, GPIIIa residues 421-435] | initially absent but appeared at later time points | AITP1,; also recorded: AITP8,; also recorded: AITP9,; also recorded: AITP10,; also recorded: AITP22,; also recorded: AITP24 | – | blocked by at least one of the antibodies | – | – | AITP11,; also recorded: AITP-12,; also recorded: AITP18,; also recorded: AITP20 |
| GVLSMDSSNVLQLIV (listed as Homo sapiens) [compound 44, GPIIIa residues 331-345] | – | AITP1,; also recorded: AITP3,; also recorded: AITP10,; also recorded: AITP18,; also recorded: AITP21, | – | – | – | – | AITP8,; also recorded: AITP24 |
| PGSYGDTCEKCPTCP (listed as Homo sapiens) [compound 70, GPIIIa residues 591-605] | – | AITP2,; also recorded: AITP7,; also recorded: AITP15,; also recorded: AITP20,; also recorded: AITP24 | – | – | – | – | None |
| TTRGVSSCQQCLAVS (listed as Homo sapiens) [peptide 2, GPIIIa residues 6-20] | elicited proliferation from all samples | – | – | blocked by at least one of the antibodies | – | – | None |

— patent US8398987B2, “Use of platelet glycopeptide IIIa epitopes in the treatment of immune thrombocytopenic purpura” (The University Court of the University of Aberdeen, priority 2007, dated 2013)
